The target of data set [1] is T1, DPP4 (dipeptidyl peptidase 4) (Homo sapiens, UniProt P27487). Put plainly: Drug degradation assessed as recombinant human DPP4-mediated cleavage by measuring compound remaining after 96 hrs by RP-HPLC analysis. The class given is ADME. The note with it: read-out: Stability.
The subject of data set [2] is Mus musculus. The data set is described as follows: Reduction in blood glucose in Kunming mouse assessed as blood glucose level at 25 nmol/kg, ip at administered 0 mins followed by first glucose challenge at 40 mins followed by second glucose challenge at 310 mins and measured at 80 mins by glucose tolerance test (reference value: 4.9 to 6.3 mmol/L). The class given is functional.

The subject of data set [3] is Mus musculus. Put plainly: Reduction in blood glucose in Kunming mouse assessed as blood glucose level at 25 nmol/kg, ip at administered 0 mins followed by first glucose challenge at 40 mins followed by second glucose challenge at 310 mins and measured at 55 mins by glucose tolerance test (reference value: 4.9 to 6.3 mmol/L). The class given is functional.
Data set [4] has as its target T1, DPP4 (dipeptidyl peptidase 4). Put plainly: Drug degradation assessed as recombinant human DPP4-mediated cleavage by measuring compound remaining after 72 hrs by RP-HPLC analysis. The class given is ADME. The note with it: read-out: Stability.
In data set [5] the test system is Mus musculus. The data set is described as follows: Reduction in blood glucose in Kunming mouse assessed as blood glucose peak value at 25 nmol/kg, ip at administered 0 mins followed by first glucose challenge at 40 mins followed by second glucose challenge at 310 mins and measured at 325 mins by glucose tolerance test relative to control. Further details: scale not given: the % may be the effect or the level left. The class given is functional.

The test system of data set [6] is Mus musculus. Put plainly: Reduction in blood glucose in Kunming mouse assessed as blood glucose level at 25 nmol/kg, ip at administered 0 mins followed by first glucose challenge at 40 mins followed by second glucose challenge at 310 mins and measured at 430 mins by glucose tolerance test (reference value: 4.9 to 6.3 mmol/L). The class given is functional.
Data set [7] has as its target T1, DPP4 (dipeptidyl peptidase 4). The data set is described as follows: Drug degradation assessed as recombinant human DPP4-mediated cleavage by measuring compound remaining after 24 hrs by RP-HPLC analysis. The note with it: read-out: Stability. The class given is ADME.
A short description of data set [8]: Retention time of compound over 30 mins by HPLC analysis. The class given is physicochemical. To be noted: 0.5 h.
In data set [9] the test system is Mus musculus. Put plainly: Reduction in blood glucose in Kunming mouse assessed as blood glucose level at 25 nmol/kg, ip at administered 0 mins followed by first glucose challenge at 40 mins followed by second glucose challenge at 310 mins and measured at 325 mins by glucose tolerance test (reference value: 4.9 to 6.3 mmol/L). The class given is functional.
Data set [10] deals with Mus musculus. The data set is described as follows: Reduction in blood glucose in Kunming mouse assessed as blood glucose level at 25 nmol/kg, ip at administered 0 mins followed by first glucose challenge at 40 mins followed by second glucose challenge at 310 mins and measured at 160 mins by glucose tolerance test (reference value: 4.9 to 6.3 mmol/L). The class given is functional.

Data set [11] addresses Glucagon-like peptide 1 receptor (Homo sapiens, UniProt P43220). Put plainly: Activation of human GLP1R expressed in HEK293 cells preincubated for 30 mins followed by addition of cAMP-d2 conjugate/cryptate conjugate incubated for 60 mins by fluorescence analysis. The class given is functional, cell-based.
Data set [12] relates to Mus musculus. The data set is described as follows: Reduction in blood glucose in Kunming mouse assessed as blood glucose level at 25 nmol/kg, ip at administered 0 mins followed by first glucose challenge at 40 mins followed by second glucose challenge at 310 mins and measured at 115 mins by glucose tolerance test (reference value: 4.9 to 6.3 mmol/L). The class given is functional.

Data set [13] relates to Mus musculus. Put plainly: Reduction in blood glucose in Kunming mouse assessed as blood glucose level at 25 nmol/kg, ip at administered 0 mins followed by first glucose challenge at 40 mins followed by second glucose challenge at 310 mins and measured at 350 mins by glucose tolerance test (reference value: 4.9 to 6.3 mmol/L). The class given is functional.
Data set [14] concerns Mus musculus. The data set is described as follows: Reduction in blood glucose in Kunming mouse assessed as blood glucose peak value at 25 nmol/kg, ip at administered 0 mins followed by first glucose challenge at 40 mins measured at 80 mins by glucose tolerance test relative to control. The class given is functional. Set-up: scale not given: the % may be the effect or the level left.

Data set [15] has as its system Mus musculus. The data set is described as follows: Reduction in blood glucose in Kunming mouse assessed as blood glucose level at 25 nmol/kg, ip at administered 0 mins followed by first glucose challenge at 40 mins followed by second glucose challenge at 310 mins and measured at 310 mins by glucose tolerance test (reference value: 4.9 to 6.3 mmol/L). The class given is functional.

For data set [16], the system named is Mus musculus. The data set is described as follows: Reduction in blood glucose in Kunming mouse assessed as blood glucose AUC at 25 nmol/kg, ip at administered 0 mins followed by first glucose challenge at 40 mins followed by second glucose challenge at 310 mins and measured at 325 mins by glucose tolerance test relative to control. The class given is functional. Set-up: scale not given: the % may be the effect or the level left.

In data set [17] the test system is Mus musculus. The data set is described as follows: Reduction in blood glucose in Kunming mouse assessed as blood glucose level at 25 nmol/kg, ip at administered 0 mins followed by first glucose challenge at 40 mins followed by second glucose challenge at 310 mins and measured at 40 mins by glucose tolerance test (reference value: 4.9 to 6.3 mmol/L). The class given is functional.

Data set [18] concerns Mus musculus. Put plainly: Reduction in blood glucose in Kunming mouse assessed as blood glucose AUC at 25 nmol/kg, ip at administered 0 mins followed by first glucose challenge at 40 mins measured at 80 mins by glucose tolerance test relative to control. The class given is functional. Set-up: scale not given: the % may be the effect or the level left.
The target of data set [19] is T1, DPP4 (dipeptidyl peptidase 4). Put plainly: Drug degradation assessed as recombinant human DPP4-mediated cleavage by measuring compound remaining after 12 hrs by RP-HPLC analysis. The class given is ADME. To be noted: read-out: Stability.
Data set [20] shares this target. Put plainly: Drug degradation assessed as recombinant human DPP4-mediated cleavage by measuring compound remaining after 48 hrs by RP-HPLC analysis. The class given is ADME. The note with it: read-out: Stability.
The target is the same in data set [21]. Put plainly: Half life of compound assessed as recombinant human DPP4-mediated cleavage by RP-HPLC analysis. The class given is ADME.
Data set [22] deals with Mus musculus. Put plainly: Reduction in blood glucose in Kunming mouse assessed as blood glucose level at 25 nmol/kg, ip at administered 0 mins followed by first glucose challenge at 40 mins followed by second glucose challenge at 310 mins and measured at 385 mins by glucose tolerance test (reference value: 4.9 to 6.3 mmol/L). The class given is functional.

The values below come from ChEMBL document CHEMBL3769397, “A new GLP-1 analogue with prolonged glucose-lowering activity in vivo via backbone-based modification at the N-terminus” (Bioorg Med Chem, 2016).

T1 sequence (P27487 whole entry): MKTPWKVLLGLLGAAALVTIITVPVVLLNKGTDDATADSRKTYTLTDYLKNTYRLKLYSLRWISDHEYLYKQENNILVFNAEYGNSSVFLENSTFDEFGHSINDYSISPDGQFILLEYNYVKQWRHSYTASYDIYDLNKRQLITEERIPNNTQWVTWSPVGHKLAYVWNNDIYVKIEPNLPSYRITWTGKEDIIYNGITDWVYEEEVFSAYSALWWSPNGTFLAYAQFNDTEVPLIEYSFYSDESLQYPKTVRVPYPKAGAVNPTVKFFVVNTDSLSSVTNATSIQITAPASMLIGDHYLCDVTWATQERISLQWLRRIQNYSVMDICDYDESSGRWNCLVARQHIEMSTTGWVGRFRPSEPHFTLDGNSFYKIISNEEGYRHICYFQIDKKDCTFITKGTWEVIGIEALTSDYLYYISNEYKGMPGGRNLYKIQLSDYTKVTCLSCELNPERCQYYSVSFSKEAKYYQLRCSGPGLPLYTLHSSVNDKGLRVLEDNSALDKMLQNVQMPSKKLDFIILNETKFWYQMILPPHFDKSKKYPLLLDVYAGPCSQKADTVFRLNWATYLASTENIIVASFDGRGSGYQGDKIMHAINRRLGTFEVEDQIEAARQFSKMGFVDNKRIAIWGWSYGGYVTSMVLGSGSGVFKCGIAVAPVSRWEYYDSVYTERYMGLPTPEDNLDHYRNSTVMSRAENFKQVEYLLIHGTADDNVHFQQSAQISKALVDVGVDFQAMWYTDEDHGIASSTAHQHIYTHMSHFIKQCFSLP
Chain of Glucagon-like peptide 1 receptor (P43220 whole entry): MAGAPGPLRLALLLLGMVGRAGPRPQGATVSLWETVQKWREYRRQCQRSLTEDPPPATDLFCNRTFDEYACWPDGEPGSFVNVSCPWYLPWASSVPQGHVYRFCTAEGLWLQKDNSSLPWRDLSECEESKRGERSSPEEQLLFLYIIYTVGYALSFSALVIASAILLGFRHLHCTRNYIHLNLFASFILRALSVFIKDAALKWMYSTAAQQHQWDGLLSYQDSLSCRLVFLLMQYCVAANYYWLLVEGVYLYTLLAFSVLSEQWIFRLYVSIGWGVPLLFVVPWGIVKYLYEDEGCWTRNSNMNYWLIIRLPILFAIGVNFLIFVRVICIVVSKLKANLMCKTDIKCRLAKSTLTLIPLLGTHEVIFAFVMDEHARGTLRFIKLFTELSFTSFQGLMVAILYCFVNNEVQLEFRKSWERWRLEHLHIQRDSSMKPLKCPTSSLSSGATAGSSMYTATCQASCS

As usually defined, the EC50 is the concentration giving half of the maximal effect. A word on the half-life: it is how long it takes for the measured level to halve. Regarding `CC[C@H](C)[C@H](NC(=O)[C@H](Cc1ccccc1)NC(=O)[C@H](CCC(=O)O)NC(=O)[C@H](CCCCN)NC(=O)[C@H](C)NC(=O)[C@H](C)NC(=O)[C@H](CCC(N)=O)NC(=O)CNC(=O)[C@H](CCC(=O)O)NC(=O)[C@H](CC(C)C)NC(=O)[C@H](Cc1ccc(O)cc1)NC(=O)[C@H](CO)NC(=O)[C@H](CO)NC(=O)[C@@H](NC(=O)[C@H](CC(=O)O)NC(=O)[C@H](CO)NC(=O)[C@@H](NC(=O)[C@H](Cc1ccccc1)NC(=O)[C@@H](NC(=O)CNC(=O)[C@H](CCC(=O)O)NC(=O)CCNC(=O)[C@@H](N)Cc1cnc[nH]1)[C@@H](C)O)[C@@H](C)O)C(C)C)C(=O)N[C@@H](C)C(=O)N[C@@H](Cc1c[nH]c2ccccc12)C(=O)N[C@@H](CC(C)C)C(=O)N[C@H](C(=O)N[C@@H](CCCCN)C(=O)NCC(=O)N[C@@H](CCCNC(=N)N)C(N)=O)C(C)C`, the remaining at 96 h in data set [1] came to 100%. Also, the Activity in the data set on Mus musculus [2] amounted to 16 mmol/L; in the data set with Mus musculus [3], 12.8 mmol/L; in the data set with Mus musculus [5], 84%; in the data set on Mus musculus [6], 6.8 mmol/L; in the data set on Mus musculus [9], 19.6 mmol/L; with Mus musculus [10], 7.8 mmol/L. In addition, the Activity with Mus musculus [12] is listed as 11.8 mmol/L; in the data set with Mus musculus [13], 16.8 mmol/L; in the data set with Mus musculus [14], 61%; in the data set with Mus musculus [15], 6.3 mmol/L; with Mus musculus [16], 81%; in the data set with Mus musculus [17] it was 6.5 mmol/L. Besides, the Activity in the data set with Mus musculus [18] came out at 63%; in the data set with Mus musculus [22] it was 9.8 mmol/L. In addition, the remaining at 72 h in data set [4] turned out to be 100%. The remaining at 24 h in data set [7] is 100%. The Retention_time in [8] is on record as 13.751 min. In addition, in data set [11], the midpoint of the response, the EC50, lay at 0.0329 nM. Besides, in data set [19], the remaining at 12 h stood at 100%. In addition, in [20], the remaining at 48 h is 100%. Also, the half-life in [21] is above 96 h.

Consider `CC[C@H](C)[C@H](NC(=O)[C@H](Cc1ccccc1)NC(=O)[C@H](CCC(=O)O)NC(=O)[C@H](CCCCN)NC(=O)[C@H](C)NC(=O)[C@H](C)NC(=O)[C@H](CCC(N)=O)NC(=O)CNC(=O)[C@H](CCC(=O)O)NC(=O)[C@H](CC(C)C)NC(=O)[C@H](Cc1ccc(O)cc1)NC(=O)[C@H](CO)NC(=O)[C@H](CO)NC(=O)[C@@H](NC(=O)[C@H](CC(=O)O)NC(=O)[C@H](CO)NC(=O)[C@@H](NC(=O)[C@H](Cc1ccccc1)NC(=O)[C@@H](NC(=O)CNC(=O)[C@H](CCC(=O)O)NC(=O)[C@H]1CCC[C@@H]1NC(=O)[C@@H](N)Cc1cnc[nH]1)[C@@H](C)O)[C@@H](C)O)C(C)C)C(=O)N[C@@H](C)C(=O)N[C@@H](Cc1c[nH]c2ccccc12)C(=O)N[C@@H](CC(C)C)C(=O)N[C@H](C(=O)N[C@@H](CCCCN)C(=O)NCC(=O)N[C@@H](CCCNC(=N)N)C(N)=O)C(C)C`, for which the remaining at 96 h in [1] came out at 100%. Besides, the Activity is 15.9 mmol/L with Mus musculus [2]; 14.8 mmol/L with Mus musculus [3]; 8.7 mmol/L in the data set with Mus musculus [6]; 22.8 mmol/L in the data set on Mus musculus [9]; 9.1 mmol/L in the data set on Mus musculus [10]; 11.5 mmol/L with Mus musculus [12]. Moreover, the Activity with Mus musculus [13] was 19.2 mmol/L; with Mus musculus [15], 6.2 mmol/L; in the data set with Mus musculus [17], 7 mmol/L; in the data set with Mus musculus [22], 11.4 mmol/L. Further, in data set [4], the remaining at 72 h was found to be 100%. For the same compound, in [7], the remaining at 24 h came to 100%. In [8], this compound returned a Retention_time of 13.997 min. For the same compound, in [11], the EC50 was 0.0766 nM. Moreover, the remaining at 12 h in data set [19] came out at 100%. For the same compound, in [20], the remaining at 48 h came out at 100%. Moreover, in data set [21], the half-life was above 96 h.
